Experimental findings from patent US20220289679A1, “HETEROCYCLIC COMPOUND” (Takeda Pharmaceutical Company Limited, priority 2019, published 2022) are described below.

The first assay has as its target T1, human GCS (glucosylceramide synthase) (Homo sapiens, UniProt Q16739).
T1 construct: made in house; host or cells: Expi293F cells (transient expression; microsome fraction)
T1 sequence (Q16739 1-394): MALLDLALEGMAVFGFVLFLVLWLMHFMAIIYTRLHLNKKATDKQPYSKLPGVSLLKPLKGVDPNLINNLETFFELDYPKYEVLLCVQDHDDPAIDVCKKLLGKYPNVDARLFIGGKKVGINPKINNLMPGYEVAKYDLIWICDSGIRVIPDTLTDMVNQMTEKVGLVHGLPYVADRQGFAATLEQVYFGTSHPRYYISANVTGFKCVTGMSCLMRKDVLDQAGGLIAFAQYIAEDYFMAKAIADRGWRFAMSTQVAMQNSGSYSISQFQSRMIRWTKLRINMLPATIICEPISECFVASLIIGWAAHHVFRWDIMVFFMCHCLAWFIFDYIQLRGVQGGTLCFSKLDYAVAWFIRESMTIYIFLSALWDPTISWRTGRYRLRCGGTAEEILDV
The experiment in a line: Glucosylceramide Synthase (GCS) Assay. The format is biochemical. The conditions noted are these: test compound 10 μM; microsome fraction of Expi293F cells expressing human GCS; 1.7 μM UDP-glucose, 3 μM C8 ceramide; room temperature 60 min; C8 glucosylceramide by Rapidfire MS/MS. The gist of the method:
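Enzyme source was a microsome fraction from Expi293F cells transiently expressing human GCS. Reaction ran 60 min at room temperature in 20 mM Tris pH 7.5 with 1.7 μM UDP-glucose (Km) and 3 μM liposomal C8 ceramide, compound at 10 μM final. C8 glucosylceramide quantified by RapidFire MS/MS; inhibition scaled between enzyme-free and DMSO controls.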
With `O=C(Nc1ccc(C(O)C2CC2)nc1)c1cccn(-c2ccc(F)cc2OCC(F)(F)F)c1=O` (single isomer, unassigned) [Example 116, (R or S)-N-{6-[cyclopropyl(hydroxy)methyl]pyridin-3-yl}-1-[4-fluoro-2-(2,2,2-trifluoroethoxy)phenyl]-2-oxo-1,2-dihydropyridine-3-carboxamide], the “GCS enzyme inhibitory rate at 10 μM (%)” value was determined as 97%.

Still in this assay, the particulars now being: test compound 10 μM; microsome fraction of Expi293F cells expressing human GCS; 1.7 μM UDP-glucose, 3 μM C8 ceramide; room temperature 60 min; C8 glucosylceramide by Rapidfire MS/MS; read-out: GCS enzyme inhibitory rate at 10 μM (%).
`O=C(Nc1ccc(C2(O)CC2)cc1)c1cccn(-c2ccc(F)cc2OCC(F)(F)F)c1=O` [Example 69, 1-[4-fluoro-2-(2,2,2-trifluoroethoxy)phenyl]-N-[4-(1-hydroxycyclopropyl)phenyl]-2-oxo-1,2-dihydropyridine-3-carboxamide]: the inhibition at 10 µM turned out to be 99%.

In the case of `CC(C)(O)c1ccc(NC(=O)c2cccn(-c3ccccc3OCC(F)(F)F)c2=O)cc1` [Example 63], the inhibition at 10 µM was 100%.

Turning to `O=C(Nc1cnc(OC(F)F)nc1)c1cccn(-c2ccc(F)cc2OCC(F)(F)F)c1=O` [Example 51, N-[2-(difluoromethoxy)pyrimidin-5-yl]-1-[4-fluoro-2-(2,2,2-trifluoroethoxy)phenyl]-2-oxo-1,2-dihydropyridine-3-carboxamide], the inhibition at 10 µM amounted to 84%.

On to `CCOC(=O)c1cc(C(=O)Nc2ccc(OC(F)F)cc2)c(=O)n(-c2ccccc2OCC(F)(F)F)n1` [Example 198, ethyl 5-{[4-(difluoromethoxy)phenyl]carbamoyl}-6-oxo-1-[2-(2,2,2-trifluoroethoxy)phenyl]-1,6-dihydropyridazine-3-carboxylate], for which the inhibition at 10 µM was 98%.

With `O=C(Nc1ccc(C(O)(C(F)F)C(F)F)nc1)c1cn(CC(F)F)nc(-c2ccccc2OCC(F)F)c1=O` [Example 186, 6-[2-(2,2-difluoroethoxy)phenyl]-2-(2,2-difluoroethyl)-5-oxo-N-[6-(1,1,3,3-tetrafluoro-2-hydroxypropan-2-yl)pyridin-3-yl]-2,5-dihydropyridazine-4-carboxamide], the inhibition at 10 µM was found to be 100%.

On to `N#CCc1ccc(NC(=O)c2cccn(-c3ccccc3OCC(F)(F)F)c2=O)cn1` [Example 86, N-[6-(cyanomethyl)pyridin-3-yl]-2-oxo-1-[2-(2,2,2-trifluoroethoxy)phenyl]-1,2-dihydropyridine-3-carboxamide], for which the inhibition at 10 µM was determined as 88%.

For the compound `O=C(Nc1ccc(C(O)(C(F)F)C(F)F)nc1)c1cccn(-c2cc(F)c(F)cc2OCC(F)(F)F)c1=O` [Example 118, 1-[4,5-difluoro-2-(2,2,2-trifluoroethoxy)phenyl]-2-oxo-N-[6-(1,1,3,3-tetrafluoro-2-hydroxypropan-2-yl)pyridin-3-yl]-1,2-dihydropyridine-3-carboxamide], the inhibition at 10 µM was 97%.

Turning to `O=C(Nc1ccc(F)cc1F)c1cn(CC2COC2)nc(-c2ccccc2OCC(F)F)c1=O` [Example 181, 6-[2-(2,2-difluoroethoxy)phenyl]-N-(2,4-difluorophenyl)-2-[(oxetan-3-yl)methyl]-5-oxo-2,5-dihydropyridazine-4-carboxamide], the inhibition at 10 µM is 97%.

With `Cn1cc(C(=O)Nc2ccc(C(C)(C)O)cc2)c(=O)c(-c2ccccc2OCC(F)F)n1` [Example 158, 6-[2-(2,2-difluoroethoxy)phenyl]-N-[4-(2-hydroxypropan-2-yl)phenyl]-2-methyl-5-oxo-2,5-dihydropyridazine-4-carboxamide], the inhibition at 10 µM amounted to 100%.

For the compound `CC(O)(c1ccc(NC(=O)c2cccn(-c3ccnnc3OCC(F)(F)F)c2=O)cn1)C(F)(F)F` (racemic) [Example 121, rac-2-oxo-1-[3-(2,2,2-trifluoroethoxy)pyridazin-4-yl]-N-[6-(1,1,1-trifluoro-2-hydroxypropan-2-yl)pyridin-3-yl]-1,2-dihydropyridine-3-carboxamide], the inhibition at 10 µM amounted to 90%.

In the case of `CC(C)(O)c1cc(C(=O)Nc2ccc(C(C)(C)C#N)cc2)c(=O)n(-c2ccccc2OCC(F)(F)F)n1` [Example 201, N-[4-(2-cyanopropan-2-yl)phenyl]-6-(2-hydroxypropan-2-yl)-3-oxo-2-[2-(2,2,2-trifluoroethoxy)phenyl]-2,3-dihydropyridazine-4-carboxamide], the inhibition at 10 µM was determined as 100%.

As to `CC(C)(O)Cc1ccc(NC(=O)c2cccn(-c3ccc(F)cc3OCC(F)(F)F)c2=O)cc1` [Example 61, 1-[4-fluoro-2-(2,2,2-trifluoroethoxy)phenyl]-N-[4-(2-hydroxy-2-methylpropyl)phenyl]-2-oxo-1,2-dihydropyridine-3-carboxamide], the inhibition at 10 µM was found to be 95%.

Regarding `CC(C)(O)c1ccc(NC(=O)c2cccn(-c3ncncc3OCC(F)(F)F)c2=O)cn1` [Example 119, N-[6-(2-hydroxypropan-2-yl)pyridin-3-yl]-2-oxo-1-[5-(2,2,2-trifluoroethoxy)pyrimidin-4-yl]-1,2-dihydropyridine-3-carboxamide], the inhibition at 10 µM was 74%.

As for `CC(C)(O)c1ccc(NC(=O)c2ccnn(-c3ccc(F)cc3OCC(F)(F)C(F)(F)F)c2=O)cc1` [Example 106, 2-[4-fluoro-2-(2,2,3,3,3-pentafluoropropoxy)phenyl]-N-[4-(2-hydroxypropan-2-yl)phenyl]-3-oxo-2,3-dihydropyridazine-4-carboxamide], the inhibition at 10 µM came out at 99%.

For `Cc1cc(C(=O)Nc2ccc(C(C)(C)O)nc2)c(=O)n(-c2ccccc2OCC(F)F)n1` [Example 135, 2-[2-(2,2-difluoroethoxy)phenyl]-N-[6-(2-hydroxypropan-2-yl)pyridin-3-yl]-6-methyl-3-oxo-2,3-dihydropyridazine-4-carboxamide], the inhibition at 10 µM came to 98%.

For `Cc1cc(C(=O)Nc2ccc(C(C)(C)O)nc2)c(=O)n(-c2ccccc2OCC(F)(F)F)n1` [Example 129, N-[6-(2-hydroxypropan-2-yl)pyridin-3-yl]-6-methyl-3-oxo-2-[2-(2,2,2-trifluoroethoxy)phenyl]-2,3-dihydropyridazine-4-carboxamide], the inhibition at 10 µM is 99%.

`CC(C)(O)COc1cc(F)ccc1-n1cccc(C(=O)Nc2ccc(C(O)(C(F)(F)F)C(F)(F)F)cc2)c1=O` [Example 105, 1-[4-fluoro-2-(2-hydroxy-2-methylpropoxy)phenyl]-N-[4-(1,1,1,3,3,3-hexafluoro-2-hydroxypropan-2-yl)phenyl]-2-oxo-1,2-dihydropyridine-3-carboxamide]: the inhibition at 10 µM was determined as 99%.

Consider `N#Cc1ccc(NC(=O)c2cccn(-c3ccccc3OCC(F)(F)F)c2=O)cn1` [Example 24, N-(6-cyanopyridin-3-yl)-2-oxo-1-[2-(2,2,2-trifluoroethoxy)phenyl]-1,2-dihydropyridine-3-carboxamide], for which the inhibition at 10 µM amounted to 98%.

With `C=C(C)c1ccc(NC(=O)c2cc(C(C)(C)O)nn(-c3ccccc3OCC(F)(F)F)c2=O)cc1` [Example 203, 6-(2-hydroxypropan-2-yl)-3-oxo-N-[4-(prop-1-en-2-yl)phenyl]-2-[2-(2,2,2-trifluoroethoxy)phenyl]-2,3-dihydropyridazine-4-carboxamide], the inhibition at 10 µM turned out to be 99%.

With `Cn1cc(C(=O)Nc2ccc(C(C)(C)O)cc2)c(=O)c(-c2ccccc2OCC(F)(F)F)n1` [Example 166, N-[4-(2-hydroxypropan-2-yl)phenyl]-2-methyl-5-oxo-6-[2-(2,2,2-trifluoroethoxy)pheny]-2,5-dihydropyridazine-4-carboxamide], the inhibition at 10 µM turned out to be 100%.

For `Cc1cc(C(=O)Nc2ccc(C(C)(C)O)cc2Cl)c(=O)n(-c2ccccc2OCC(F)F)n1` [Example 149, N-[2-chloro-4-(2-hydroxypropan-2-yl)phenyl]-2-[2-(2,2-difluoroethoxy)phenyl]-6-methyl-3-oxo-2,3-dihydropyridazine-4-carboxamide], the inhibition at 10 µM turned out to be 100%.

Turning to `O=C(Nc1ccc(C(O)(C(F)F)C(F)F)nc1)c1cn(C(F)F)nc(-c2ccccc2OCC(F)F)c1=O` [Example 177, 6-[2-(2,2-difluoroethoxy)phenyl]-2-(difluoromethyl)-5-oxo-N-[6-(1,1,3,3-tetrafluoro-2-hydroxypropan-2-yl)pyridin-3-yl]-2,5-dihydropyridazine-4-carboxamide], the inhibition at 10 µM came out at 100%.

As for `Cc1cc(C(=O)Nc2c(F)cc(C(C)(C)O)cc2F)c(=O)n(-c2ccccc2OCC(F)F)n1` [Example 150, 2-[2-(2,2-difluoroethoxy)phenyl]-N-[2,6-difluoro-4-(2-hydroxypropan-2-yl)phenyl]-6-methyl-3-oxo-2,3-dihydropyridazine-4-carboxamide], the inhibition at 10 µM came to 94%.

In the case of `O=C(Nc1ccc(Oc2ccccc2)cc1)c1cccn(-c2ccc(F)cc2N2CCOCC2)c1=O` [Example 17, 1-[4-fluoro-2-(morpholin-4-yl)phenyl]-2-oxo-N-(4-phenoxyphenyl)-1,2-dihydropyridine-3-carboxamide], the inhibition at 10 µM is 81%.

As for `O=C(Nc1ccc(COCC(F)(F)F)nc1)c1cccn(-c2ccc(F)cc2OCC(F)(F)F)c1=O` [Example 73, 1-[4-fluoro-2-(2,2,2-trifluoroethoxy)phenyl]-2-oxo-N-{6-[(2,2,2-trifluoroethoxy)methyl]pyridin-3-yl}-1,2-dihydropyridine-3-carboxamide], the inhibition at 10 µM was 99%.
